Measured values from patent US6495591B1, “Fungal efflux pump inhibitors” (Essential Therapeutics, Inc., priority 1997, dated 2002).
≈ marks a conversion by molar mass, not a printed value. Read-outs that look alike come from different tables or passages of the source.

Tests used:
[1] = target: pCDRI (ABC) efflux pump in S. cerevisiae YEM-1 (Candida albicans, UniProt P43071); assay: cell-based; format: cell-based, C. albicans
[2] = target: pCDR2 (ABC) efflux pump in S. cerevisiae YEM-37 (Candida albicans, UniProt P78595); assay: cell-based; format: cell-based, C. albicans
[3] = target: pCgCDR (ABC) efflux pump in S. cerevisiae YEM-39 (Candida glabrata, UniProt Q6FK23); assay: cell-based; format: cell-based, C. glabrata
[4] = target: pBEN (MF) efflux pump in S. cerevisiae YEM-2 (Candida albicans, UniProt P28873); assay: cell-based; format: cell-based, C. albicans
[5] = test system: pCgBEN (MF) efflux pump in S. cerevisiae YEM-40; format: cell-based, C. glabrata; settings: YEM-40 pCgBEN; fluconazole fixed at FLUhalf 2.8
[6] = test system: YEM 13 C. albicans BEN up; assay: microbe, parasite or virus in culture; format: cell-based; settings: YEM 13, 24 hrs, 80% inhibition; for MIC of compound in the presence of fluconazole (+): 1/8 × MIC of fluconazole
[7] = test system: YEM 15 C. albicans, CDR1CDR2 up; assay: microbe, parasite or virus in culture; format: cell-based; settings: YEM 15, 24 hrs, 80% inhibition; for MIC of compound in the presence of fluconazole (+): 1/8 × MIC of fluconazole
[8] = test system: YEM 53 C. krusei; assay: FEPI MIC with/without 1/8 fluconazole MIC at 24 hrs (Table 11); format: cell-based; settings: for MIC of compound in the absence of fluconazole (−): YEM 53, 24 hrs, 80% inhibition
[9] = test system: YEM 17 C. glabrata, CgCDR up; format: cell-based; settings: 24 hrs, 80% inhibition; for MIC of compound in the presence of fluconazole (+): 1/8 × MIC of fluconazole
[10] = test system: YEM 51 C. glabrata wt; assay: FEPI MIC with/without 1/8 fluconazole MIC at 24 hrs (Table 11); format: cell-based; settings: for MIC of compound in the absence of fluconazole (−): YEM 51, 24 hrs, 80% inhibition
[11] = test system: YEM 30 C. albicans wt; assay: as above; format: cell-based; settings: for MIC of compound in the absence of fluconazole (−): YEM 30, 24 hrs, 80% inhibition
[12] = test system: YEM 24 C. albicans ΔCDR1, ΔCDR2; assay: microbe, parasite or virus in culture; format: cell-based; settings: YEM 24, 24 hrs, 80% inhibition; for MIC of compound in the presence of fluconazole (+): 1/8 × MIC of fluconazole
[13] = test system: YEM 27 C. albicans ΔCDR1ΔCDR2 ΔBENΔFLU1; assay: microbe, parasite or virus in culture; format: cell-based; settings: YEM 27, 24 hrs, 80% inhibition; for MIC of compound in the presence of fluconazole (+): 1/8 × MIC of fluconazole
[14] = test system: Aspergillus fumigatus; assay: FEPI MICs in combination with 1/4 the azole's MIC (Table 12); format: cell-based; settings: for FEPI MIC with itraconazole, 60% Inh / FEPI MIC with itraconazole, 80% Inh: itraconazole 0.063 μg/ml (1/4 MIC); for FEPI MIC with itraconazole, 60% Inh / FEPI MIC with ketoconazole, 60% Inh: 60% inhibition; for FEPI MIC with itraconazole, 80% Inh / FEPI MIC with ketoconazole, 80% Inh / FEPI MIC (alone): 80% inhibition; for FEPI MIC with ketoconazole, 60% Inh / FEPI MIC with ketoconazole, 80% Inh: ketoconazole 4 μg/ml (1/4 MIC); for FEPI MIC (alone): no azole, 35° C., CM Broth
Protocol: The combinations were tested against a series of Candida strain with known expression of efflux pumps or with complete deletion of all known pumps and Aspergillus fumigatus. Results are reported as minimum inhibitory concentration (MIC) of […] in the presence or absence of […]. A total of 27 distinct milbemycins were studied.

[15] = test system: C. tropicalis; assay: microbe, parasite or virus in culture; format: cell-based
[16] = test system: S. cerevisiae YEM-3 (no efflux pump introduced); assay: microbe, parasite or virus in culture; format: cell-based; settings: Saccharomyces cerevisiae, read-out: MIC Mb alone
[17] = test system: C. albicans YEM-21 (BEN deleted); assay: microbe, parasite or virus in culture; format: cell-based
[18] = test system: C. glabrata YEM-16 (low level CgBEN and CgCDR expression); assay: microbe, parasite or virus in culture; format: cell-based
[19] = test system: P388 cell line (mouse leukemia), adriamycin sensitive; assay: Adriamycin cytotoxicity (MTT), P-glycoprotein assay
Protocol: (§1) The inhibitory effect of milbemycin β1 against the mammalian P-glycoprotein multi-drug resistant pump was determined following the procedure described by Tsuruo et al (Cancer Res., 1981. 41:1967-1972) with slight modification. The cytotoxicity of antitumor agent, adriamycin, against adriamycin sensitive P388 cell line (mouse leukemia) and its adriamycin resistant subline line (P388/ADM) was measured in the presence of various concentrations of milbemycin β1. […] The assay is performed in serum-free media containing 20 μM of 2-mercaptoethanol. Chemosensitivity to adriamycin was determined […] based on the reduction of MTT (3-[4,5-dimethylthiazol-2-yl]-2,5-diphenyltetrazolium bromide) into blue formazan.

[20] = test system: P388/ADM, adriamycin resistant subline; assay: as above
Protocol: as §1

[21] = test system: C. albicans YEM-13 (BEN); format: cell-based
[22] = test system: C. glabrata YEM-19 (CgCDR overexpressor); format: cell-based

pCDRI (ABC) efflux pump in S. cerevisiae YEM-1, sequence (P43071 whole entry): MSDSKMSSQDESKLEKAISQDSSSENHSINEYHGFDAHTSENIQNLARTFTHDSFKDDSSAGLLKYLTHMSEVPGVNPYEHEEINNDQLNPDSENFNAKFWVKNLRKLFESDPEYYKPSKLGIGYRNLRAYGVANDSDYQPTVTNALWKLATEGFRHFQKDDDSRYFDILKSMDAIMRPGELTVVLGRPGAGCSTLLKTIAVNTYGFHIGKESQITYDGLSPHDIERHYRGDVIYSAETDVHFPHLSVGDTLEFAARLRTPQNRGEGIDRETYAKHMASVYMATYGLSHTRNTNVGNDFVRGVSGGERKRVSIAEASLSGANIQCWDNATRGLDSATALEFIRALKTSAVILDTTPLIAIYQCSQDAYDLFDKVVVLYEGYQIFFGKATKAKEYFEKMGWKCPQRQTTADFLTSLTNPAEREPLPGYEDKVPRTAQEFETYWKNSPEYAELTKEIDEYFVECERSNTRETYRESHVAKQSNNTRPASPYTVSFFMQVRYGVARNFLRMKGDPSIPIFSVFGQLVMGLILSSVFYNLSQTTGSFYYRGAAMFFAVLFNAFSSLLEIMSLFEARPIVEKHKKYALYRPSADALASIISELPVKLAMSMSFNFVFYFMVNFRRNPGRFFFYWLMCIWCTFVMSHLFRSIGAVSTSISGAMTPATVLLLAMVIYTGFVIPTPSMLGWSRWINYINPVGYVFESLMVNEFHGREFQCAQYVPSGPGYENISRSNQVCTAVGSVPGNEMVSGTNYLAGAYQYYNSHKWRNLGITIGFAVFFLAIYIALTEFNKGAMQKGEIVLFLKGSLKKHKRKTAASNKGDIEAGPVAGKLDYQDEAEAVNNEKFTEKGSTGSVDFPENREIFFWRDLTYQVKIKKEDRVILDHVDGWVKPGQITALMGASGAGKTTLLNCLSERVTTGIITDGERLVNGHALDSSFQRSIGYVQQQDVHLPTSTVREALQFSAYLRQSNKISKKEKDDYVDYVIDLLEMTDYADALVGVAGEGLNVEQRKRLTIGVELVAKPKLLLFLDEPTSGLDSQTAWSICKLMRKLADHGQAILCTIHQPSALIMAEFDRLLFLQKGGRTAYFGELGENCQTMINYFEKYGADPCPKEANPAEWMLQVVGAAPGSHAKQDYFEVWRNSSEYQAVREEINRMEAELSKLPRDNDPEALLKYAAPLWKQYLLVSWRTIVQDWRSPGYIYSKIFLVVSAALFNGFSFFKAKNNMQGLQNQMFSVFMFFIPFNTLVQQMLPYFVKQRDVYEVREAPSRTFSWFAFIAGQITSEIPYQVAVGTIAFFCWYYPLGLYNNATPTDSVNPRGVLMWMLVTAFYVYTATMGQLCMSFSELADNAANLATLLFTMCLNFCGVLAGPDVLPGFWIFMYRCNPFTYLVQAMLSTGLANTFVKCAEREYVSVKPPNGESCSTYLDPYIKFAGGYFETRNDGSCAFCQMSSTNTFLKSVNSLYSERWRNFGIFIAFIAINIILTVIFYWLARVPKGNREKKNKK
pBEN (MF) efflux pump in S. cerevisiae YEM-2, sequence (P28873 whole entry): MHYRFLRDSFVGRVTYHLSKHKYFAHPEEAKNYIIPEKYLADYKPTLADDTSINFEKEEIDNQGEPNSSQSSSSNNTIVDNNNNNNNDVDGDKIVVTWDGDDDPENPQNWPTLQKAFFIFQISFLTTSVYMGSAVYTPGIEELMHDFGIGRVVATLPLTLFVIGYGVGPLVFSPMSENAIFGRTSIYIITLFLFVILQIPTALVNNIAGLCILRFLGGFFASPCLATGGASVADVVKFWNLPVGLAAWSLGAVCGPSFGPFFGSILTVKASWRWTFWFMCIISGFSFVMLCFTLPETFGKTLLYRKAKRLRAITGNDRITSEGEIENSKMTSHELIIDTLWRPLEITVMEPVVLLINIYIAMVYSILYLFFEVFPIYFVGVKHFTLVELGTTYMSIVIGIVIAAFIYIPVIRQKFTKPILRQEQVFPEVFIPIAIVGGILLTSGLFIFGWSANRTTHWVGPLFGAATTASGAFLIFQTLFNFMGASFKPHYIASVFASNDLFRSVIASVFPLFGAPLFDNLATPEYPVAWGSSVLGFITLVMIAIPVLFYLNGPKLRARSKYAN
pCDR2 (ABC) efflux pump in S. cerevisiae YEM-37, sequence (P78595 whole entry): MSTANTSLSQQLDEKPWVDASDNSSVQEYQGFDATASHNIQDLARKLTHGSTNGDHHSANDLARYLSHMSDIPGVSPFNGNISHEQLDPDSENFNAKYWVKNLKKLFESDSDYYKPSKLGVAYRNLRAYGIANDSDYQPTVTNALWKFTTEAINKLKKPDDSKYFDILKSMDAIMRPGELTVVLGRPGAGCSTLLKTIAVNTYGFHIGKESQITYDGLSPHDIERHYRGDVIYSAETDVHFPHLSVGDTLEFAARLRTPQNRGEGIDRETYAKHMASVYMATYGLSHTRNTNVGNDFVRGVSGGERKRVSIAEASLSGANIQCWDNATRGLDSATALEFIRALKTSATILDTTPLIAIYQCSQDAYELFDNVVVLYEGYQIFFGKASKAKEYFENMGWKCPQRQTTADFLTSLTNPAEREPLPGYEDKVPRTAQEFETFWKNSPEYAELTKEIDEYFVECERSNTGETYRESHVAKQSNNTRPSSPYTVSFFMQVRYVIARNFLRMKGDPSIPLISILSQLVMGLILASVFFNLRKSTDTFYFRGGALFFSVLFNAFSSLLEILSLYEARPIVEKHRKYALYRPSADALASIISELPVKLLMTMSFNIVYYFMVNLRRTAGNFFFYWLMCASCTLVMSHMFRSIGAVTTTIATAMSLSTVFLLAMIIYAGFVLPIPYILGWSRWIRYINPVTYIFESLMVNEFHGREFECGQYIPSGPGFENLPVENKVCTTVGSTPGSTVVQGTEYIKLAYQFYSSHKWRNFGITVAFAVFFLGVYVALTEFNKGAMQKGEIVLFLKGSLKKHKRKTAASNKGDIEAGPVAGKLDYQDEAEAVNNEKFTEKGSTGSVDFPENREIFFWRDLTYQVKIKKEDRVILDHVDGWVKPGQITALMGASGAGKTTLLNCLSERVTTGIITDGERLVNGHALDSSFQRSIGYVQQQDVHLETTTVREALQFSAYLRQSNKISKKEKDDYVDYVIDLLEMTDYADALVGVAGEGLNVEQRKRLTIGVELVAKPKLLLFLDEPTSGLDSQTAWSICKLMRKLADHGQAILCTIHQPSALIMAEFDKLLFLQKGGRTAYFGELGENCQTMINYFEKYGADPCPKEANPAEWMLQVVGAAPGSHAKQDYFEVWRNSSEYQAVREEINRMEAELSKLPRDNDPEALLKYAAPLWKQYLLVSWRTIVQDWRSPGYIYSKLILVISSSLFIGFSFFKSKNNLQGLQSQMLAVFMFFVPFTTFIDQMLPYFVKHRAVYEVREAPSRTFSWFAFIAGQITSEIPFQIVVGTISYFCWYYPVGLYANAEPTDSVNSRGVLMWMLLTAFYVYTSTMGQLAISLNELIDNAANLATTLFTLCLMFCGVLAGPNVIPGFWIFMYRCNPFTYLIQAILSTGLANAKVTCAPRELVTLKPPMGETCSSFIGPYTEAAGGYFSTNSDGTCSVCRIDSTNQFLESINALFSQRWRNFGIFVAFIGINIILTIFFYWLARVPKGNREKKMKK
pCgCDR (ABC) efflux pump in S. cerevisiae YEM-39, sequence (Q6FK23 whole entry): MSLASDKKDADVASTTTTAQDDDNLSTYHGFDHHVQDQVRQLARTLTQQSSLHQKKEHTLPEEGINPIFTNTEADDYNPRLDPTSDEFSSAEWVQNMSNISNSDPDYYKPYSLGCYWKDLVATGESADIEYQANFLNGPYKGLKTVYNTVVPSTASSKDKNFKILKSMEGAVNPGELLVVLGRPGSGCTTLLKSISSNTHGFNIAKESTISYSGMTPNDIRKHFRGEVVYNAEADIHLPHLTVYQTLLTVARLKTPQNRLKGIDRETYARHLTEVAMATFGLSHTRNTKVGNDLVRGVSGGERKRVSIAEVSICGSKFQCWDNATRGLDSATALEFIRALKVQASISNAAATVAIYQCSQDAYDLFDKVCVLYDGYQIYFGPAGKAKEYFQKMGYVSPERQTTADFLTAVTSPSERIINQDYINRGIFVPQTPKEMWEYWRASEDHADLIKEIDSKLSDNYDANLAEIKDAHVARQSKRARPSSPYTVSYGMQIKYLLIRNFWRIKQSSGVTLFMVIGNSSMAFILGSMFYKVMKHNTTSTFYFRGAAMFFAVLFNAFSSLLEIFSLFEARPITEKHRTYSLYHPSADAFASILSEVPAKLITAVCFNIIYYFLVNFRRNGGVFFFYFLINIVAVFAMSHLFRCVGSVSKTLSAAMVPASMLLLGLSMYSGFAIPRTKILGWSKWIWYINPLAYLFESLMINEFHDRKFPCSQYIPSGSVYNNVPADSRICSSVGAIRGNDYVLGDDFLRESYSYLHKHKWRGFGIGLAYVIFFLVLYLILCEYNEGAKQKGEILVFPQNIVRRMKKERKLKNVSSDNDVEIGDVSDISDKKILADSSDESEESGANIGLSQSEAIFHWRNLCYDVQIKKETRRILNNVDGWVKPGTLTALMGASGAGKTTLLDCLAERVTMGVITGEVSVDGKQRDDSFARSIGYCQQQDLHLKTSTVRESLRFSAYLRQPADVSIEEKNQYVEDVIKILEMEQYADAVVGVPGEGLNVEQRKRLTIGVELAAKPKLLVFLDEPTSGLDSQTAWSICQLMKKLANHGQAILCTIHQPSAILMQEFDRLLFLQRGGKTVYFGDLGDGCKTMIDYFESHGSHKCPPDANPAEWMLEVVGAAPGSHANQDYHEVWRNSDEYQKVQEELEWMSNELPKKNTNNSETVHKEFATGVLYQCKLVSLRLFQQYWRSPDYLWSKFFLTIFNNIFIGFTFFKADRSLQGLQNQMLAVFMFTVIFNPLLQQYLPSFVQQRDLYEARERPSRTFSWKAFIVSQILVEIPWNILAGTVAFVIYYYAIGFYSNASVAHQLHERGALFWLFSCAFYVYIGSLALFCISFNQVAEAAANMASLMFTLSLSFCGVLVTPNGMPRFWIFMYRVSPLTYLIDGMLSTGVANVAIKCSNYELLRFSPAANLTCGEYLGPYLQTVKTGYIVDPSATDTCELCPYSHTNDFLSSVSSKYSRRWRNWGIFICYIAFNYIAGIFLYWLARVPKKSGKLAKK

## C/C1=C\C[C@@H]2C[C@@H](C[C@]3(CC[C@H](C)[C@@H](C)O3)O2)OC(=O)[C@@H]2C=C(COC(=O)c3ccc[nH]3)[C@@H](O)[C@H]3OC/C(=C\C=C\[C@H](C)C1)[C@]32O [Compound 11, Milbemycin α9]
[1]
  IC50: < 0.0941 µM
[2]
  IC50: 3.14 µM
[3]
  IC50: 6.27 µM
[4]
  IC50: > 100 µM
[5]
  FEPIhalf (concentration needed to reduce activity of efflux pump by 50%): >64
[6]
  MIC of compound in the presence of fluconazole (+): > 64 µg/mL
  MIC of compound in the absence of fluconazole (−): > 64 µg/mL
[7]
  MIC of compound in the presence of fluconazole (+): ≦0.03
  MIC of compound in the absence of fluconazole (−): > 64 µg/mL
[8]
  MIC of compound in the presence of fluconazole (+): ≦0.03
  MIC of compound in the absence of fluconazole (−): > 64 µg/mL
[9]
  MIC of compound in the presence of fluconazole (+): 0.5 µg/mL
  MIC of compound in the absence of fluconazole (−): > 64 µg/mL
[10]
  MIC of compound in the presence of fluconazole (+): 1 µg/mL
  MIC of compound in the absence of fluconazole (−): > 64 µg/mL
[11]
  MIC of compound in the presence of fluconazole (+): ≦0.03
  MIC of compound in the absence of fluconazole (−): > 64 µg/mL
[12]
  MIC of compound in the presence of fluconazole (+): > 64 µg/mL
  MIC of compound in the absence of fluconazole (−): > 64 µg/mL
[13]
  MIC of compound in the presence of fluconazole (+): > 64 µg/mL
  MIC of compound in the absence of fluconazole (−): > 64 µg/mL
[14]
  FEPI MIC with fluconazole, 60% Inh: ≦0.063
  FEPI MIC with fluconazole, 80% Inh: 0.5
  FEPI MIC with itraconazole, 60% Inh: 1
  FEPI MIC with itraconazole, 80% Inh: 4
  FEPI MIC with ketoconazole, 60% Inh: 0.125
  FEPI MIC with ketoconazole, 80% Inh: 0.125
  FEPI MIC (alone): >64
[15]
  Fluconazole MIC, + milbemycin α9: ≦0.25 μg/ml

## CO[C@H]1C[C@@]2(O)/C(CO)=C/C=C/[C@H](C)C/C(C)=C/C[C@@H]3C[C@@H](C[C@]4(CC[C@H](C)[C@@H](C)O4)O3)OC(=O)[C@@H]2C=C1C [Compound 6, Milbemycin β1]
[16]
  MIC: 8 µg/mL (≈ 14.7 µM)
[17]; Candida albicans, read-out: MIC Mb alone
  MIC: 16 µg/mL (≈ 29.4 µM)
[17]; YEM-21, BEN deleted, milbemycin β1 2.5 μg/ml
  MIC of fluconazole, Flu + Mb (2.5 μg/ml): 0.03 µg/mL
[18]; Nakaseomyces glabratus, read-out: MIC of milbemycin β1 (MB) alone
  MIC: > 64 µg/mL
[18]; YEM-16
  Fluconazole MIC with 2.5 μg/ml milbemycin β1: 1 µg/mL
  Fluconazole MIC with 5 μg/ml milbemycin β1: 2 µg/mL
  Fluconazole MIC with 10 μg/ml milbemycin β1: 2 µg/mL
  Fluconazole MIC with […] milbemycin β1: 2 µg/mL
[19]; inhibitor 0.06 μg/ml
  Adriamycin TC50, P388: 0.009 µg/mL
[19]; inhibitor 0.25 μg/ml
  Adriamycin TC50, P388: 0.009 µg/mL
[19]; inhibitor 0.5 μg/ml
  Adriamycin TC50, P388: 0.011 µg/mL
[19]; inhibitor 1 μg/ml
  Adriamycin TC50, P388: 0.009 µg/mL
[19]; inhibitor 2 μg/ml
  Adriamycin TC50, P388: 0.012 µg/mL
[19]; inhibitor 3.125 μg/ml
  Adriamycin TC50, P388: 0.011 µg/mL
[19]; inhibitor […]
  Adriamycin TC50, P388: 0.008 µg/mL
[20]; inhibitor 0.06 μg/ml
  Adriamycin TC50, P388/ADM: 1.955 µg/mL
[20]; inhibitor 0.25 μg/ml
  Adriamycin TC50, P388/ADM: 0.66 µg/mL
[20]; inhibitor 0.5 μg/ml
  Adriamycin TC50, P388/ADM: 0.369 µg/mL
[20]; inhibitor 1 μg/ml
  Adriamycin TC50, P388/ADM: 0.215 µg/mL
[20]; inhibitor 2 μg/ml
  Adriamycin TC50, P388/ADM: 0.05 µg/mL
[20]; inhibitor 3.125 μg/ml
  Adriamycin TC50, P388/ADM: 0.051 µg/mL
[20]; inhibitor […]
  Adriamycin TC50, P388/ADM: 0.848 µg/mL
[21]
  Minimal concentration required to reduce the MIC of fluconazole by sixteen-fold: 80 µg/mL
[22]
  Minimal concentration required to reduce the MIC of fluconazole by sixteen-fold: 2.5 µg/mL
[1]; read-out: FEPIhalf (concentration needed to reduce activity of efflux pump by 50%), YEM-1 pCDRI, fluconazole fixed at FLUhalf 5.6
  IC50: 0.918 µM
[2]; read-out: FEPIhalf (concentration needed to reduce activity of efflux pump by 50%), YEM-37 pCDR2, fluconazole fixed at FLUhalf 1
  IC50: 3.67 µM
[3]; read-out: FEPIhalf (concentration needed to reduce activity of efflux pump by 50%), YEM-39 pCgCDR, fluconazole fixed at FLUhalf 4
  IC50: 3.67 µM
[4]; read-out: FEPIhalf (concentration needed to reduce activity of efflux pump by 50%), YEM-2 pBEN, fluconazole fixed at FLUhalf 5.6
  IC50: 29.4 µM
[5]
  FEPIhalf (concentration needed to reduce activity of efflux pump by 50%): 16
[6]
  MIC of compound in the presence of fluconazole (+): > 64 µg/mL
  MIC of compound in the absence of fluconazole (−): > 64 µg/mL
[7]
  MIC of compound in the presence of fluconazole (+): ≦0.03
  MIC of compound in the absence of fluconazole (−): > 64 µg/mL
[8]
  MIC of compound in the presence of fluconazole (+): 8 µg/mL
  MIC of compound in the absence of fluconazole (−): > 64 µg/mL
[9]
  MIC of compound in the presence of fluconazole (+): 1 µg/mL
  MIC of compound in the absence of fluconazole (−): > 64 µg/mL
[10]
  MIC of compound in the presence of fluconazole (+): 8 µg/mL
  MIC of compound in the absence of fluconazole (−): > 64 µg/mL
[11]
  MIC of compound in the presence of fluconazole (+): ≦0.03
  MIC of compound in the absence of fluconazole (−): > 64 µg/mL
[12]
  MIC of compound in the presence of fluconazole (+): > 64 µg/mL
  MIC of compound in the absence of fluconazole (−): > 64 µg/mL
[13]
  MIC of compound in the presence of fluconazole (+): 64 µg/mL
  MIC of compound in the absence of fluconazole (−): > 64 µg/mL
[14]
  FEPI MIC with fluconazole, 60% Inh: 2
  FEPI MIC with fluconazole, 80% Inh: >64
  FEPI MIC with itraconazole, 60% Inh: >64
  FEPI MIC with itraconazole, 80% Inh: >64
  FEPI MIC with ketoconazole, 60% Inh: ≦0.063
  FEPI MIC with ketoconazole, 80% Inh: 4
  FEPI MIC (alone): >64
